Reference: publication PMC5256054 (Iranian Journal of Parasitology, 2016)

Experiments:
[1] = test system: P. falciparum strain NF54; conditions: read-out: IC50, P. falciparum strain NF54; erythrocytic stages in vitro; ref [8]; cited from earlier work
P. falciparum strain K1 = conditions: read-out: IC50, P. falciparum strain K1; erythrocytic stages in vitro; ref [8]; cited from earlier work
[2] = test system: P. falciparum 3D7 chloroquine (CQ) sensitive strain; assay: In vitro antiplasmodial test, Giemsa-stained smear parasitemia count; assay type: cell-based; conditions: Plasmodium falciparum, 3D7, 24 h, read-out: P. falciparum IC50

IC50 [2]	SMILES	IC50 [1]	IC50 (P. falciparum strain K1)
	COc1cc(C=C2Oc3cc(OC(C)=O)cc(OC(C)=O)c3C2=O)cc(OC)c1OC(C)=O [4,6,4′-triacetyl-3′,5′-dimethoxy-2-aurone]	180 nM	7 nM
775 nM	CCN(CC)CCCC(C)Nc1ccnc2cc(Cl)ccc12 (stereo not drawn) [CQ, Chloroquine]		
